The structures appear in SMILES notation. pEC50: −log10 of the molar value.

In assay [1] the target is T1, h-TGR5 (Homo sapiens, UniProt Q8TDU6).
T1 sequence (Q8TDU6 1-330): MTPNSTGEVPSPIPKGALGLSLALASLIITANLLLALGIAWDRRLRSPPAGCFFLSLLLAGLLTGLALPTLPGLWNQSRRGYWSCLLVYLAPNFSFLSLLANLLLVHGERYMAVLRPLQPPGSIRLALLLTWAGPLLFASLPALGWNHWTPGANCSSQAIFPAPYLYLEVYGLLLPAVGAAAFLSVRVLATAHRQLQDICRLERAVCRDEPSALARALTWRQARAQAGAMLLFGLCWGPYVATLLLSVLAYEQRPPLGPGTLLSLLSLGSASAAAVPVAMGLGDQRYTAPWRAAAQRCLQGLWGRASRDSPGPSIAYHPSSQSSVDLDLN
The assay can be described thus: TGR5 cAMP Assay using Cisbio cAMP Dynamic 2 htrf assay kit. It counts as cell-based. Particulars: hTGR5CRE-luc HEK 293 cells.

The target of assay [2] is T2, human TGR5 (h-TGR5) (Homo sapiens, UniProt Q8TDU6).
T2 sequence (Q8TDU6 1-330): T1 sequence (Q8TDU6 1-330)
Put plainly: TGR5/CRE-Luciferase Assay. Conditions: HEK 293 hTGR5/CRE-Luc cells, 6 hours incubation, read-out: CRE-Luc Agonist (EC50). It counts as cell-based. The procedure, abridged:
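HEK 293 CRE-Luciferase cells stably expressing the receptor, plated in DMEM 18-20 h before assay, then exposed to serially diluted compounds (DMEM with 5% DMSO) for 6 h. Luciferase read-out after lysis; EC50 from dose-response.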

As to `COc1cc(C(C)(C)c2cnc(SCc3c(F)cc(S(=O)(=O)N(CCC[N+](C)(C)C)[C@@H](C(=O)O)C(C)C)cc3F)n2-c2ccc(F)cc2)ccc1Cl` [Compound 14q, 3-([(1R)-1-carboxy-2-methylpropyl]{[4-({[5-{1-[4-chloro-3-(methyloxy)phenyl]-1-methylethyl}-1-(4-fluorophenyl)-1H-imidazol-2-yl]thio}methyl)-3,5-difluorophenyl]sulfonyl}amino)-N,N,N-trimethylpropan-1-aminium], the pEC50 in assay [1] and in assay [2] was above 7.00 throughout.

With `COc1cc(C(C)(C)c2cnc(CCc3c(F)cc(S(=O)(=O)N(CCC[N+](C)(C)C)[C@H](C)C(=O)O)cc3Cl)n2-c2ccc(F)cc2)ccc1Cl` [Compound 17m, (R)-3-(N-(1-carboxyethyl)-3-chloro-4-(2-(5-(2-(4-chloro-3-methoxyphenyl)propan-2-yl)-1-(4-fluorophenyl)-1H-imidazol-2-yl)ethyl)-5-fluorophenylsulfonamido)-N,N,N-trimethylpropan-1-aminium 2,2,2-trifluoroacetate], the pEC50 in assay [1] and in assay [2] was above 7.00 in each case.

For the molecule `COc1cc(C(C)(C)c2cnc(SCc3c(F)cc(C(=O)N4CCC([N+](C)(C)C)CC4)cc3Cl)n2-c2ccc(F)cc2)ccc1Cl` [Example 2l, 1-{[3-chloro-4-({[5-{1-[4-chloro-3-(methyloxy)phenyl]-1-methylethyl}-1-(4-fluorophenyl)-1H-imidazol-2-yl]thio}methyl)-5-fluorophenyl]carbonyl}-N,N,N-trimethylpiperidin-4-aminium], the pEC50 in assay [1] and in assay [2] was above 7.00 throughout.

Take `COc1cc(C(C)(C)c2cnc(SCc3cc(S(=O)(=O)N(CCC[N+](C)(C)C)CCC[N+](C)(C)C)c(F)cc3Cl)n2-c2ccc(F)cc2)ccc1Cl` [Example 6p, 3,3′-({[4-chloro-5-({[5-{1-[4-chloro-3-(methyloxy)phenyl]-1-methylethyl}-1-(4-fluorophenyl)-1H-imidazol-2-yl]thio}methyl)-2-fluorophenyl]sulfonyl}imino)bis(N,N,N-trimethylpropan-1-aminium)]: the pEC50 in assay [1] and in assay [2] was 6.00 to 7.00 throughout.

Turning to `COc1cc(C(C)(C)c2cnc(SCc3c(F)cc(S(=O)(=O)N(CCC[N+](C)(C)C)CC(N)=O)cc3F)n2-c2ccc(F)cc2)ccc1Cl` [Compound 12h, 3-(N-(2-amino-2-oxoethyl)-4-((5-(2-(4-chloro-3-methoxyphenyl)propan-2-yl)-1-(4-fluorophenyl)-1H-imidazol-2-ylthio)methyl)-3,5-difluorophenylsulfonamido)-N,N,N-trimethylpropan-1-aminium 2,2,2-trifluoroacetate], the pEC50 in assay [1] and in assay [2] was above 7.00 each time.

Regarding `CC[N+](C)(C)CCCN(C)S(=O)(=O)c1cc(F)c(CSc2ncc(C(C)(C)c3ccc(F)c(OC)c3)n2-c2ccc(F)cc2)c(Cl)c1` [Compound 14m, 3-[{[3-chloro-5-fluoro-4-({[5-{1-[4-fluoro-3-(methyloxy)phenyl]-1-methylethyl}-1-(4-fluorophenyl)-1H-imidazol-2-yl]thio}methyl)phenyl]sulfonyl} (methyl)amino]-N-ethyl-N,N-dimethylpropan-1-aminium], the pEC50 in assay [1] and in assay [2] was above 7.00 each time.

With `COc1cc(C(C)(C)c2cnc(SCc3c(F)cc(S(=O)(=O)N(C)[C@@H](CCC[N+](C)(C)C)C(=O)O)cc3F)n2-c2ccc(F)cc2)cc(F)c1F` [Compound 14f, (S)-4-carboxy-4-(4-((5-(2-(3,4-difluoro-5-methoxyphenyl)propan-2-yl)-1-(4-fluorophenyl)-1H-imidazol-2-ylthio)methyl)-3,5-difluoro-N-methylphenylsulfonamido)-N,N-trimethylbutan-1-aminium chloride], the pEC50 in assay [1] and in assay [2] was above 7.00 each time.

Turning to `COc1cc(C(C)(C)c2cnc(SCc3c(F)cc(C(=O)NCC[N+](C)(C)C)cc3Cl)n2-c2ccc(F)cc2)ccc1Cl` [Example 1, 2-(3-chloro-4-((S-(2-(4-chloro-3-methoxyphenyl)propan-2-yl)-1-(4-fluorophenyl)-1H-imidazol-2-ylthio)methyl)-S-fluorobenzamido)-N,N,N-trimethylethanaminium chloride], the pEC50 in assay [1] and in assay [2] was above 7.00 in each case.

Turning to `COc1cc(C(C)(C)c2cnc(SCc3cc(S(=O)(=O)NCCC[N+](C)(C)C)c(F)cc3Cl)n2-c2ccc(F)cc2)ccc1Cl` [Example 7, 3-(4-Chloro-5-((5-(2-(4-chloro-3-methoxyphenyl)propan-2-yl)-1-(4-fluorophenyl)-1H-imidazol-2-ylthio)methyl)-2-fluorophenylsulfonamido)-N,N,N-trimethylpropan-1-aminium 2,2,2-trifluoroacetate], the pEC50 in assay [1] and in assay [2] was above 7.00 in each case.

Take `CC[N+](C)(C)C1CCN(S(=O)(=O)c2cc(F)c(CSc3ncc(C(C)(C)c4ccc(Cl)c(OC)c4)n3-c3ccc(F)cc3)c(Cl)c2)CC1` [Compound 11j, 1-{[3-chloro-4-({[5-{1-[4-chloro-3-(methyloxy)phenyl]-1-methylethyl}-1-(4-fluorophenyl)-1H-imidazol-2-yl]thio}methyl)-5-fluorophenyl)sulfonyl}-N-ethyl-N,N-dimethylpiperidin-4-aminium]: the pEC50 in assay [1] and in assay [2] was above 7.00 in each case.

As for `COc1cc(C(C)(C)c2cnc(SCc3c(F)cc(S(=O)(=O)N(CCCC[N+](C)(C)C)CC(=O)O)cc3F)n2-c2ccc(F)cc2)ccc1Cl` [Compound 14o, 4-[(carboxymethyl){[4-({[5-{1-[4-chloro-3-(methyloxy)phenyl]-1-methylethyl}-1-(4-fluorophenyl)-1H-imidazol-2-yl]thio}methyl)-3,5-difluorophenyl]sulfonyl}amino]-N,N,N-trimethylbutan-1-aminium], the pEC50 in assay [1] and in assay [2] was above 7.00 in each case.

On to `COc1cc(C(C)(C)c2cnc(SCc3c(F)cc(S(=O)(=O)NCCC[n+]4ccn(C)c4)cc3Cl)n2-c2ccc(F)cc2)ccc1F` [Compound 10, 3-(3-(3-chloro-5-fluoro-4-((5-(2-(4-fluoro-3-methoxyphenyl)propan-2-yl)-1-(4-fluorophenyl)-1H-imidazol-2-ylthio)methyl)phenylsulfonamido)propyl)-1-methyl-1H-imidazol-3-ium methanesulfonate], for which the pEC50 in assay [1] and in assay [2] was above 7.00 in each case.

As for `CC(C)(c1ccc2onc(N)c2c1)c1cnc(SCc2c(F)cc(C(=O)NCC[N+](C)(C)C)cc2Cl)n1-c1ccc(F)cc1` [Example 1c, 2-[({4-[({5-[1-(3-amino-1,2-benzisoxazol-5-yl)-1-methylethyl]-1-(4-fluorophenyl)-1H-imidazol-2-yl}thio)methyl]-3-chloro-5-fluorophenyl}carbonyl)amino]-N,N,N-trimethylethanaminium], the pEC50 in assay [1] and in assay [2] was above 7.00 each time.

With `COc1cc(C(C)(C)c2cnc(SCc3c(F)cc(S(=O)(=O)N(CCC[N+](C)(C)C)C4CC4)cc3Cl)n2-c2ccc(F)cc2)ccc1F` [Compound 14k, 3-[{[3-chloro-5-fluoro-4-({[5-{1-[4-fluoro-3-(methyloxy)phenyl]-1-methylethyl}-1-(4-fluorophenyl)-1H-imidazol-2-yl]thio}methyl)phenyl]sulfonyl} (cyclopropyl)amino]-N,N,N-trimethylpropan-1-aminium], the pEC50 in assay [1] and in assay [2] was above 7.00 throughout.

Turning to `COc1cc(C(C)(C)c2cnc(SCc3c(F)cc(C(=O)NCC4(O)CC[N+](C)(C)CC4)cc3Cl)n2-c2ccc(F)cc2)ccc1Cl` [Example 2m, 4-[({[3-chloro-4-({[5-{1-[4-chloro-3-(methyloxy)phenyl]-1-methylethyl}-1-(4-fluorophenyl)-1H-imidazol-2-yl]thio}methyl)-5-fluorophenyl]carbonyl}amino)methyl]-4-hydroxy-1,1-dimethylpiperidinium], the pEC50 in assay [1] and in assay [2] was above 7.00 throughout.

`COc1cc(C(C)(C)c2cnc(SCc3c(F)cc(C(=O)N[C@H]4CC[N+](C)(Cc5ccc(F)cc5)C4)cc3Cl)n2-c2ccc(F)cc2)ccc1Cl` (stereo partly drawn) [Example 2e, (3S)-3-({[3-chloro-4-({[5-{1-[4-chloro-3-(methyloxy)phenyl]-1-methylethyl}-1-(4-fluorophenyl)-1H-imidazol-2-yl]thio}methyl)-5-fluorophenyl]carbonyl}amino)-1-[(4-fluorophenyl)methyl]-1-methylpyrrolidinium]: the negative logarithm of the EC50 (pEC50) in assay [1] and in assay [2] was above 7.00 throughout.

As for `COc1cc(C(C)(C)c2cnc(SCc3c(F)cc(S(=O)(=O)NCCC[N+](C)(C)C)cc3Cl)n2-c2ccc(F)cc2)ccc1F` [Example 6a, 3-({[3-chloro-5-fluoro-4-({[5-{1-[4-fluoro-3-(methyloxy)phenyl]-1-methylethyl}-1-(4-fluorophenyl)-1H-imidazol-2-yl]thio}methyl)phenyl]sulfonyl}amino)-N,N,N-trimethylpropan-1-aminium], the pEC50 in assay [1] and in assay [2] was above 7.00 in each case.

For `COc1cc(C(C)(C)c2cnc(SCc3c(F)cc(S(=O)(=O)N(CCC[N+](C)(C)C)[C@H](C)C(=O)O)cc3F)n2-c2ccc(F)cc2)ccc1Cl` [Compound 14a, (R)-3-(N-(1-carboxyethyl)-4-((5-(2-(4-chloro-3-methoxyphenyl)propan-2-yl)-1-(4-fluorophenyl)-1H-imidazol-2-ylthio)methyl)-3,5-difluorophenylsulfonamido)-N,N,N-trimethylpropan-1-aminium 2,2,2-trifluoroacetate], the pEC50 in assay [1] and in assay [2] was above 7.00 in each case.

The values above are taken from US8846739B2, “TGR5 agonists” (Exelixis Patent Company LLC, priority 2009, dated 2014).
